Holding throughout (type): in vivo, human
In experiment [1] the test system is married person with small very atrophic testicles. The experiment in a line: Clinical Example A: person with history of undescended testicles, impotence and infertility treated with Arimidex. To be noted: ⅛ mg (0.125 mg) daily. The text has this:
A married person with a history of undescended testicles that were surgically corrected […]. This person presented to the inventor with small very atrophic testicles, impotence (difficulty in erecting, only occasionally able to have successful intercourse only with PDE5 inhibitors) and an inability to conceive despite two years of unprotected sexual intercourse with their spouse.
All of this is a result of the improved testicular function that this relatively low dose of Arimidex provided for this patient.

Experiment [2] deals with person with testicular atrophy following pelvic radiation. Kind of experiment: Clinical Example C: person with testicular decline after pelvic radiation for prostate cancer treated with Letrazole. The settings on record: 1/40th of a 2.5 mg tablet daily. The text has this:
A sexually active person with biopsy confirmed prostate cancer elects to treat their cancer with pelvic radiation. Following radiation there is a progressive decline in testosterone levels, combined with testicular atrophy and increasing erectile dysfunction.

Experiment [3] deals with person with extremely small and atrophic testicles. The experiment in a line: Clinical Example B: person with low libido, erectile dysfunction and ejaculatory failure treated with Femara. To be noted: ⅛ to ½ of a 2.5 mg tablet. The protocol:
A […] athletic and muscular […] complaining of low libido, erectile dysfunction and ejaculatory failure. Patient was needing to use Viagra in order to function sexually, and had no desire for sex. Sex hormones testosterone and estrogen were measured at prepubertal levels.

In the case of `CC(C)(C#N)c1cc(Cn2cncn2)cc(C(C)(C)C#N)c1` [Arimidex, Anastrozole], in experiment [1], the erectile function entry is “dramatic improvement”; the “fertility (ability to conceive)” value was “able to conceive and have a child”; the sperm counts entry is on record as “dramatic increase”; the testicular function result was “improved”. The testosterone levels result in experiment [1] is “significant increase”.
With `N#Cc1ccc(C(c2ccc(C#N)cc2)n2cncn2)cc1` [Femara, Letrozole], in experiment [2], the testicular function result was “significant improvement” and the testosterone levels result is given as “dramatic rise”. Besides, in experiment [3], the ejaculations during intercourse entry is recorded as “restoration”, the erections result is on record as “improved”, the sex drive entry is “restoration” and the testicular function entry is “dramatic increase”. In addition, the testosterone levels entry in experiment [3] is reported as “restored to the high supraphysiologic levels”.

For the origin of these results see patent publication US20140235601A1, “Use of Aromatase Inhibitor Or Estrogen Blocker For Increasing Spermatogenesis Or Testosterone Levels In Males” (priority 2011, published 2014).
